The source made the active and inactive calls. The rule behind the calls is not given here.
Assays:
[1] = Toxicity in BALB/c nude mouse xenografted with human MKN-45 cells assessed as body weight loss at 10 to 40 mg/kg, po administered once daily for 21 days; assay type: organism-based; conditions: in vivo, 504 h, dose 10-40 mg/kg, time 21 day
[2] = MRT (0 to infinity) in male Sprague-Dawley rat at 10 mg/kg, iv measured after 24 hrs by LC-MS/MS analysis; assay type: ADME, organism-based; conditions: in vivo
[3] = Toxicity in BALB/c nude mouse xenografted with human MKN-45 cells assessed as effect on liver morphology at 10 to 40 mg/kg, po administered once daily for 21 days by H and E staining based analysis; assay type: organism-based; conditions: in vivo, 504 h, dose 10-40 mg/kg, time 21 day
[4] = biological target: T1, Protein cereblon/Hepatocyte growth factor receptor (Homo sapiens, UniProt P08581+Q96SW2); experiment: PROTAC activity at CRBN/c-MET in human PC-9 cells assessed as induction of c-MET degradation at 3.125 to 50 nM incubated for 24 hrs by Western blot analysis; assay type: cell-based; conditions: dose 3.125-50 nM
[5] = Tmax in male Sprague-Dawley rat at 10 mg/kg, iv measured after 24 hrs by LC-MS/MS analysis; assay type: ADME, organism-based; conditions: in vivo
[6] = Oral bioavailability in male Sprague-Dawley rat at 10 mg/kg measured after 24 hrs by LC-MS/MS analysis; assay type: ADME, organism-based; conditions: in vivo
MKN-45 [7] = experiment: Upregulation of HSPG2 protein level in human MKN-45 cells at 100 nM incubated for 24 hrs by MS-based quantitative proteomics analysis; assay type: functional, cell-based
Mus musculus [8] = experiment: Downregulation of c-MET protein level in BALB/c nude mouse stomach xenografted with human MKN-45 cells at 10 mg/kg, po measured after 48 hrs by Western blot analysis; assay type: functional, organism-based
[9] = biological target: T1, Protein cereblon/Hepatocyte growth factor receptor; experiment: PROTAC activity at CRBN/c-MET in human A549 cells assessed as induction of c-MET degradation at 12.5 to 200 nM incubated for 24 hrs by Western blot analysis; assay type: cell-based; conditions: dose 12.5-200 nM
[10] = biological target: T1, Protein cereblon/Hepatocyte growth factor receptor; experiment: PROTAC activity at CRBN/c-MET in human NGEC cells assessed as induction of c-MET degradation upto 50 nM incubated for 24 hrs by Western blot analysis; assay type: cell-based; conditions: NGEC cell
MKN-45 [11] = experiment: Antiproliferative activity against human MKN-45 cells incubated for 72 hrs by CCK8 assay; assay type: functional, cell-based; conditions: MKN-45, 72 h
[12] = Downregulation of c-MET protein level in human MKN-45 cells assessed as fold change at 100 nM incubated for 24 hrs by MS-based quantitative proteomics analysis relative to control; assay type: functional
[13] = Half-life in male Sprague-Dawley rat at 10 mg/kg, po measured after 24 hrs by LC-MS/MS analysis; assay type: ADME, organism-based; conditions: in vivo
Hs746T = experiment: Inhibition of c-MET/Akt signaling pathway activation in human Hs746T cells at 12.5 to 200 nM incubated for 24 hrs by Western blot analysis; assay type: cell-based; conditions: dose 12.5-200 nM
[14] = AUC (0 to infinity) in male Sprague-Dawley rat at 10 mg/kg, iv measured after 24 hrs by LC-MS/MS analysis; assay type: ADME, organism-based; conditions: in vivo
[15] = Toxicity in BALB/c nude mouse xenografted with human MKN-45 cells assessed as effect on lung morphology at 10 to 40 mg/kg, po administered once daily for 21 days by H and E staining based analysis; assay type: organism-based; conditions: in vivo, 504 h, dose 10-40 mg/kg, time 21 day
PC-9 = experiment: Inhibition of c-MET/Akt signaling pathway activation in human PC-9 cells at 3.125 to 50 nM incubated for 24 hrs by Western blot analysis; assay type: cell-based; conditions: dose 3.125-50 nM
Mus musculus [16] = experiment: Downregulation of c-MET protein level in BALB/c nude mouse liver xenografted with human MKN-45 cells at 10 mg/kg, po measured after 48 hrs by Western blot analysis; assay type: functional, organism-based
MKN-45 [17] = experiment: Downregulation of ULK2B protein level in human MKN-45 cells at 100 nM incubated for 24 hrs by MS-based quantitative proteomics analysis; assay type: functional, cell-based

T1 sequence (P08581 25-1390 limits assumed): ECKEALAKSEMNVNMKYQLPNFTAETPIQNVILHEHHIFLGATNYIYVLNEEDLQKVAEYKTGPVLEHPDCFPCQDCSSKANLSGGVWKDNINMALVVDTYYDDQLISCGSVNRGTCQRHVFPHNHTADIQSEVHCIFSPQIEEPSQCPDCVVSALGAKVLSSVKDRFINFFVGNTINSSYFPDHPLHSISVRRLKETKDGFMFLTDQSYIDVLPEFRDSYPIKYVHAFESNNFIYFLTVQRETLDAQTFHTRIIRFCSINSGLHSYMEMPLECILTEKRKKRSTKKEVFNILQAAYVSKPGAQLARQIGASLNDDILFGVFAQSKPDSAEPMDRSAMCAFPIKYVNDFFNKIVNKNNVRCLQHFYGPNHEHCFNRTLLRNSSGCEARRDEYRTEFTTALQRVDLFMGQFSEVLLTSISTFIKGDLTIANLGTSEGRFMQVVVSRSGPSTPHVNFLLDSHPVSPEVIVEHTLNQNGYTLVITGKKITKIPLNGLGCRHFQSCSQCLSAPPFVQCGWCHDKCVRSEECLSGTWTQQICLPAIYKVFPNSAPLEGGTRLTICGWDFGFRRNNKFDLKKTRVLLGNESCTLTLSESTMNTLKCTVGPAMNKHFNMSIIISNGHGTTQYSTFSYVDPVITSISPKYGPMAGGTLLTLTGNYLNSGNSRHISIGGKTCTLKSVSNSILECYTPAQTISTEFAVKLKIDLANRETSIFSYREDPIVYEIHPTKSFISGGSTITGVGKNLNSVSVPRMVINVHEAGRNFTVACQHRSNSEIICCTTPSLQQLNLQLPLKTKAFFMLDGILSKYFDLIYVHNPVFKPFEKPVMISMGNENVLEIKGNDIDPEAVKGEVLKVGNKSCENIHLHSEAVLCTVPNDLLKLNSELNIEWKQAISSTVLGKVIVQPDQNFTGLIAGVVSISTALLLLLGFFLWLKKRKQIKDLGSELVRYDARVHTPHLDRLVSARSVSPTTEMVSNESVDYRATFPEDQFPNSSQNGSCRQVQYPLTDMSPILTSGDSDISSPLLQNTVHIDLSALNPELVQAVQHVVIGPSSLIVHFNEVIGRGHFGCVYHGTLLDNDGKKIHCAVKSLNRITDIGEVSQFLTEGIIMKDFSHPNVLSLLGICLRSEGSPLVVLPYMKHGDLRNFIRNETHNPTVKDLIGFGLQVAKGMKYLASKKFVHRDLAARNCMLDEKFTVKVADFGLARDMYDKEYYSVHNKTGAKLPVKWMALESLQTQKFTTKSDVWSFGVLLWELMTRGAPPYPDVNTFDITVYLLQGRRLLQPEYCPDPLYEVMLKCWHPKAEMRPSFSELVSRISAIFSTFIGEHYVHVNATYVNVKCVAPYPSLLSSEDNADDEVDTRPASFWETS
T1 sequence (Q96SW2 whole entry partner): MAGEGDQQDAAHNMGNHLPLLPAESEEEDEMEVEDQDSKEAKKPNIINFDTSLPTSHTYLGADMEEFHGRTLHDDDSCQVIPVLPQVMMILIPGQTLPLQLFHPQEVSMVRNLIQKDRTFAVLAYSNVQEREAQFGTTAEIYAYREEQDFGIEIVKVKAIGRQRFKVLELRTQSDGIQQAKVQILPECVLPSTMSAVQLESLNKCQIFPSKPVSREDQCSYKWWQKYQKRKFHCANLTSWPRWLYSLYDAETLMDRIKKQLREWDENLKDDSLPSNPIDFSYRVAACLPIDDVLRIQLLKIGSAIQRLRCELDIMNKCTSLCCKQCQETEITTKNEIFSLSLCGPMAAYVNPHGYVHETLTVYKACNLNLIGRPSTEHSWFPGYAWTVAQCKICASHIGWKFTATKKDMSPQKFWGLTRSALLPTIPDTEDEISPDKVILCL

MRT inf [2]: 2.56 h | Activity [4]: Active | Tmax [5]: 4.8 min | bioavailability [6]: 16.3% | Activity [9]: inactive | Activity [10]: Weak_effect | IC50 (MKN-45 [11]): 4.37 nM | half-life [13]: 4.13 h | AUC(0-inf) [14]: 2520 ng·h/mL
SMILES: O=C1CCC(N2C(=O)c3ccc(N4CCN(CC5CCN(C(=O)c6ccc(-c7cnc8ncc(Cc9ccc%10ncccc%10c9)n8n7)cc6F)CC5)CC4)cc3C2=O)C(=O)N1 (centres undefined)
Activity [1]: Non-toxic | Activity [3]: Non-toxic | Activity (MKN-45 [7]): Active | Activity (Mus musculus [8]): Not active; Favorable Tissue Specificity Of Compound Observed | fold change (FC) [12]: 29.6 | inhibition (Hs746T): Active | Activity [15]: Non-toxic | inhibition (PC-9): Active | Activity (Mus musculus [16]): Not active; Favorable Tissue Specificity Of Compound Observed | Activity (MKN-45 [17]): Active

— ChEMBL document CHEMBL6120971 (J Med Chem, 2024)
